Structures can show the parent of a compound that is named as a salt.
Tests used:
human platelets = test: Inhibition of the arachidonic acid-induced aggregation of human platelets in vitro; type: cell-based; settings: human platelet-rich plasma; 2×10^-4 M arachidonic acid; preincubation 10 min at 37° C.
Experimental: 1. Inhibition of the arachidonic acid-induced aggregation of human platelets in vitro.
Blood is taken, by careful cannulation of the antecubital vein, from apparently healthy male and female volunteers, who have taken no medicaments in the preceding 10-day period, and is immediately stabilized with sodium citrate (ad. 0.38%). Platelet-rich plasma (PRP) is obtained in the supernatant by centrifugation at 140×g for 15 minutes, and the platelet content of this should be in the range 2.5-3.5×10^8 /ml (Coulter counter). The platelet aggregation is followed optically by measurement of the transmission of light in a Born aggregometer. The total volume of the test mix is 0.25 ml. The preincubation time at 37° C. with the test product is 10 min, and aggregation is then induced with 2×10^-4 M arachidonic acid. The test product is, as a rule, tested in five different concentrations in the PRP from three different donors. Dose-effect curves are drawn from the maximal aggregation amplitudes in each case, and the IC50 values* are determined graphically. The measurements are carried out in the period 1-6 hours after blood sampling. […]
The following IC50 values for the inhibition of the arachidonic acid-induced aggregation of human platelets in vitro were determined by the method described above for the compounds according to the invention: […]

[1] = test system: Thrombin-induced TXA2 release; test: Thrombin-induced TXA2 release in platelet-rich human plasma in vitro (TXB2 determined radioimmunologically); type: cell-based; settings: 0.5 h, relative to without test substance (=100%); for activity at 1 µM: test substance 10^-6 mol/l; for activity at 0.1 µM: test substance 10^-7 mol/l
Experimental: 2. Thrombin-induced TXA2 release in platelet-rich human plasma in vitro
Blood is taken, by careful cannulation of the antecubital vein, from apparently healthy male and female volunteers, who have taken no medicaments in the preceding 10-day period, and is immediately stabilized with sodium citrate (ad. 0.38%). Platelet-rich plasma (PRP) is obtained in the supernatant by centrifugation at 140×g for 15 minutes, and the platelet content of this should be in the range 2.5-3.5×10^8 /ml. The platelets are sedimented by renewed centrifugation (10 min at 2,000×g), and then resolubilized in Tyrode's solution (about 7×10^7 platelets/ml, total volume per measurement 0.5 ml). After addition of test substance, the mixture is incubated at 37° C. for 10 min, and then 7.2×10^-7 M arachidonic acid and 0.5 U thrombin are added, and incubation is carried out at 37° C. for 30 min. This is stopped in an ice bath and, after addition of tracer and TXB2 -specific antibodies (NEN, Dreieich), the TXB2 content is determined radioimmunologically (TXA2 is unstable under the experimental conditions and thus cannot be measured. The stable hydrolysis product TXB2 is measured in its place). The measured variable is the relative TXB2 content in the platelet incubations from two or three different donors with and without (=100%) the test substance.
The following figures for the TXB2 release after administration of the test substance were determined, for example, for the compounds according to the invention by the method described above: […]

laser-induced thrombosis = test: Inhibition of laser-induced thrombosis; type: in vivo, Sprague-Dawley rats; settings: one hour before start, rat mesentery arterioles
Experimental: 3. Inhibition of laser-induced thrombosis
The investigations of the compounds according to the invention in the model of laser-induced thrombosis are carried out on male or female Sprague-Dawley rats with a body weight of about 200 g. The animals to be investigated are premedicated s.c. with 0.1 mg of atropine sulfate in solution, and anesthetized i.p. with 100 mg of ketamine hydrochloride and 4 mg of xylazine per kg of body weight. Arterioles from the mesentery, with a diameter of 12-25 μm, are used for the investigation. During the measurement, the exposed mesentery is hyperfused with warmed physiological NaCl (37° C.) or is covered with degassed liquid paraffin. The beam of a 4 W argon laser (supplied by Spectra Physics, Darmstadt, FRG) is introduced coaxially into the inverted ray path of a microscope (ICM 405, LD-Epilan 40/0.60; supplied by Zeiss, Oberkochen, FRG) by means of a ray adaptation and adjustment system (supplied by BTG, Munich, FRG). The wavelength used is 514.5 nm, with an energy above the objective of 40 mW. The single-shot exposure time is 1/15 sec. The diameter of the effective laser beam on the vessel is 10 μm, and with repeated exposure the next shot takes place 5 μm upstream in each case, directly on the vessel wall. All the measurement procedures are filmed by video camera (Sony, Trinicon tube) and stored in a recorder (Sony, U-matic 3/4). A survey image of the terminal vessels which are to be investigated is provided by the transillumination method using the same microscope with low magnification (LD-Epilan 8/0.20). A video-analyzer and a correlator are used to determine the rate of flow in the arterioles under investigation. […]
The number of shots needed to induce a defined thrombus was counted. The frequency of the laser flashes was one lesion every 2 minutes, all the thrombi with a minimum size of 1/4 of the vessel radius which were formed during the observation period being counted and measured. The results of the experiment were statistically analyzed using the X^2 test (L. Cavalli-Sforza, Biometrie, Stuttgart, 1969, page 49 et seq.).

Row | SMILES | IC50 (human platelets) [µM] | activity at 1 µM [1] [%] | activity at 0.1 µM [1] [%] | activity at 0.01 µM ([1]; test substance 10^-8 mol/l) [%] | Number of laser shots to form a thrombus (compared with control) (laser-induced thrombosis; 1 mg/kg p.o.) | Number of laser shots to form a thrombus (compared with control) (laser-induced thrombosis; 5 mg/kg p.o.) | Number of laser shots to form a thrombus (compared with control) (laser-induced thrombosis; 10 mg/kg p.o.)
1 | CC(c1ccc2cc(C(=O)O)ccc2c1)n1ccnc1 (stereo not shown) [Example 2, 6-[1-(1-Imidazolyl)ethyl]-2-naphthoic acid hydrochloride] | 3 | 31 | 55 |  |  |  | 
2 | Cc1cncn1Cc1ccc2cc(C(=O)O)ccc2c1.Cl [Example 4, 6-(5-Methyl-1-imidazolyl)methyl-2-naphthoic acid hydrochloride] | 0.54 | 9 | 19 | 98 | +16% | +53% | +96%

— US4778817A, “Naphthyl imidazolyl compounds and pharmaceutical compositions” (priority 1985, dated 1988)
